# According to US20130060020A1, “Compounds useful for treating neurodegenerative disorders” (Satori Pharmaceuticals, Inc., priority 2011, published 2013):
# Where two headings read alike, the source gives them in different places.
# Tests used:
# Aβ-40 = Aβ-40 MSD 3-plex ELISA, conditioned media of 2B7 cells; assay type: cell-based; settings: Homo sapiens, 5 hours treatment
# Experimental: (§1) Assays were conducted to determine the ability of a Compound of Formula I to modulate […], and Aβ-38.
# (§2) Plates with capture antibodies were blocked for 1-2 hours at room temperature with 150 μL of the manufactures blocking reagent.
# (§3) Cultured 2B7 cells in 96 well plate with 250 μL of media per well until confluent;
# (§4) Prepared serial dilutions of compounds in DMSO at 100× the final desired concentration;
# (§5) Washed wells with 2B7 cells 1× with 250 μL of media;
# (§6) Diluted DMSO stocks 1:100 into media: • Added 250 μL of media containing compounds (1% DMSO) to wells with 2B7 cells for 5 hours at 37° C.
# (§7) ELISA Sample Prep: • Diluted conditioned media: 1 part media with 1% DMSO and 1 part blocking buffer; • 150 μL of the 250 μL of conditioned media were used.
# (§8) Prepared per manufacturer's protocol (see above). • Seven point standard curve samples were prepared that contained Aβ-42, Aβ-40, and Aβ-38. The highest concentration of Aβ-42 and Aβ-38 was 3,000 pg/mL and the highest concentration of Aβ-40 was 10,000 pg/mL. Subsequent serial dilutions were 1:3 and the final composition of each sample was 1 part blocking buffer and 1 part cell medium containing 1% DMSO.
# (§9) Overnight Sample Incubation: • Blocked plates are washed 5× with MSD wash buffer with a plate washer; • […] and blocker G reagent in MSD blocking solution was added; • 25 μL of samples (1 part conditioned media containing 1% DMSO and 1 part MSD blocking buffer) were then added; • Plates were incubated overnight at 4 degrees C. or 2 hours at room temperature.
# (§10) Final Wash and Readout: • Washed wells 5× with MSD wash buffer; • Added 150 μL 2×MSD read buffer; • Read with MSD imager.
# (§11) Aβ peptide levels for each peptide were calculated from the standard curve using the MSD software provided with the MSD 2400 Imager. Percent vehicle values for each compound dosage were then calculated and fit to a 4 parameter curve generating IC50 values.
# (§12) Conditioned media from 2B7 cells (Mayo) was collected after 5 hours of treatment and diluted with 1 volume of Meso Scale Discovery (MSD, Gaithersburg Md.) blocking buffer (1% BSA in MSD wash buffer). For total Aβ measurements, standard-bind, multi-array single spot 96 well MSD ELISA plates were coated with unlabeled 4G8 capture antibody (Covance, Princeton, N.J.) overnight at 4° C. and then blocked with 5% BSA in MSD wash buffer for 1 hour at room temperature with orbital shaking Diluted 2B7 conditioned media were added to the blocked in-house total Aβ MSD plates with SULFO-TAG 6E10 antibody (MSD). For Aβ38, 40 and 42 measurements, diluted 2B7 conditioned media were added to blocked human (6E10) Aβ 3-Plex plates (MSD). Total Aβ and Aβ 3-Plex plates were incubated for 2 hours at room temperature with orbital shaking followed by washing and reading according to the manufacturer's instructions (SECTOR® Imager 2400, MSD). Aβ concentrations were converted to percent vehicle values and used to construct dose response curves which were fitted to […] using GraphPad Prism version 5.00 for Windows, GraphPad Software, San Diego Calif. USA.
# Notch processing (NICD) = assay: Notch assay: NICD appearance in SUP-T1 cells (western blot); assay type: cell-based; settings: 18 hours; for Notch % inhib: Notch inhib conc class D (1001-5000 nM); for inhibition at 5 µM: Notch inhib conc class E (>5000 nM)
# Experimental: The methods for this assay are broken up into two parts. 1) Growing, dosing and lysing cells 2) Measuring Notch processing (NICD appearance) and data manipulation. Cell viability is also described (CTG). SUP-T1 cells were cultured in T75 flasks in RPMI media (Mediatech 10-041-CV) supplemented with 10% FBS and penicillin/streptomycin at 37° C. in a 5% CO2 atmosphere. One hour prior to drug treatment six well plates were seeded with 1.5 mL of media with cells at a density of 1.0×10^6 cells/mL. The DMSO serial dilutions were diluted 100 fold directly into the media with the cells and incubated for 18 hours at 37° C. After treatment 100 μL of treated cells were assayed for viability with the Promega Cell Titer Glo assay system. […] Lysates were spun at 5,000 RPM for 5 minutes and supernatants were collected and analyzed for NICD levels. […] To account for loading discrepancies each NICD band was normalized to the alpha tubulin band in that well. These values were then normalized to vehicle levels and used to plot a dose response curve. IC50 values were obtained from the dose response curves using a four parameter fit method available within Prism's GraphPad graphing suite. Luminescent data from Promega's Cell Titre Glo assay system were normalized to vehicle controls and plotted with NICD levels.
# Aβ-38 = Aβ-38 MSD 3-plex ELISA, conditioned media of 2B7 cells; assay type: cell-based; settings: Homo sapiens, 5 hours treatment
# Experimental: as §1, §2, §3, §4, §5, §6, §7, §8, §9, §10, §11, §12
# Aβ-42 = Aβ-42 MSD 3-plex ELISA, conditioned media of 2B7 cells; assay type: cell-based; settings: Homo sapiens, 5 hours treatment
# Experimental: as §1, §2, §3, §4, §5, §6, §7, §8, §9, §10, §11, §12
# Aβ 42 = assay: % 42 lowering and 40/42 selectivity after dosing in mg/kg (Table 5); assay type: in vivo; settings: 100 mg/kg
# [1] = inflection of dose response curve, read-out: Aβ 40 DR IC50 Inflection
# [2] = inflection of dose response curve, read-out: Aβ 38 DR IC50 Inflection
# [3] = inflection of dose response curve, read-out: Aβ 42 DR IC50 Inflection
SMILES,IC50 (Aβ-40; [1]) [nM],IC50 (Aβ-40; read-out: Aβ 40 IC50) [nM],Notch % inhib (Notch processing (NICD)),IC50 (Aβ-38; [2]) [nM],IC50 (Aβ-38; read-out: Aβ 38 IC50) [nM],IC50 (Aβ-42; [3]) [nM],IC50 (Aβ-42; read-out: Aβ 42 IC50) [nM],inhibition at 5 µM (Notch processing (NICD); Homo sapiens) [%],%42 lowering 10 hr (Aβ 42),%42 lowering 24 hr (Aβ 42; 24 hr),40/42 selective 10 hr (Aβ 42),"IC50 (Notch processing (NICD); Homo sapiens, NICD levels) [nM]"
CCO[C@@H]([C@H]1C[C@@H](C)[C@H]2[C@H](O1)[C@H](O)[C@@]1(C)[C@@H]3CC[C@H]4C(C)(C)[C@@H](O[C@H]5CN(C6CNC6)CCO5)CC[C@@]45C[C@@]35CC[C@]21C)C(C)(C)O [Compound I-2],> 5000,1000 to 5000,A (A is range from 0-25%),100 to 500,100 to 500,< 100,100 to 500,,,,,
CCO[C@@H]([C@H]1C[C@@H](C)[C@H]2[C@H](O1)[C@H](O)[C@@]1(C)[C@@H]3CC[C@H]4C(C)(C)[C@@H](O[C@H]5CN(C6CN(C)C6)CCO5)CC[C@@]45C[C@@]35CC[C@]21C)C(C)(C)O [Compound I-3],,,,,,,,26 to 50,,,,
CCO[C@@H]([C@H]1C[C@@H](C)[C@H]2[C@H](O1)[C@H](O)[C@@]1(C)[C@@H]3CC[C@H]4C(C)(C)[C@@H](O[C@H]5CN(C6CN(CC(=O)N(C)C)C6)CCO5)CC[C@@]45C[C@@]35CC[C@]21C)C(C)(C)O [Compound I-7],,1000 to 5000,A (A is range from 0-25%),,100 to 500,100 to 500,100 to 500,,,,,
CCO[C@@H]([C@H]1C[C@@H](C)[C@H]2[C@H](O1)[C@H](O)[C@@]1(C)[C@@H]3CC[C@H]4C(C)(C)[C@@H](O[C@H]5CN(C6CN(CC(=O)N7CCC7)C6)CCO5)CC[C@@]45C[C@@]35CC[C@]21C)C(C)(C)O [Compound I-8],,1000 to 5000,A (A is range from 0-25%),,1000 to 5000,100 to 500,100 to 500,,,,,
CCO[C@@H]([C@H]1C[C@@H](C)[C@H]2[C@H](O1)[C@H](O)[C@@]1(C)[C@@H]3CC[C@H]4C(C)(C)[C@@H](O[C@H]5CN(CC6CN(CC(C)(C)O)C6)CCO5)CC[C@@]45C[C@@]35CC[C@]21C)C(C)(C)O [Compound I-24],,,,,,,,,A^a (% 42 lowering of under 15%),C^a (% 42 lowering of 21-25%),,
CCO[C@@H]([C@H]1C[C@@H](C)[C@H]2[C@H](O1)[C@H](O)[C@@]1(C)[C@@H]3CC[C@H]4C(C)(C)[C@@H](O[C@H]5CN(C6CCN(CCOC)CC6)CCO5)CC[C@@]45C[C@@]35CC[C@]21C)C(C)(C)O [Compound I-28],,,,,501 to 1000,100 to 500,100 to 500,,A^a (% 42 lowering of under 15%),,F^a (10-15 fold selectivity),
CCO[C@@H]([C@H]1C[C@@H](C)[C@H]2[C@H](O1)[C@H](O)[C@@]1(C)[C@@H]3CC[C@H]4C(C)(C)[C@@H](O[C@H]5CN(C6CCN(C(C)C)CC6)CCO5)CC[C@@]45C[C@@]35CC[C@]21C)C(C)(C)O [Compound I-30],,1000 to 5000,,,100 to 500,< 100,< 100,,A^a (% 42 lowering of under 15%),,G^a (16-20 fold selectivity),
CCO[C@@H]([C@H]1C[C@@H](C)[C@H]2[C@H](O1)[C@H](O)[C@@]1(C)[C@@H]3CC[C@H]4C(C)(C)[C@@H](O[C@H]5CN(C6CCN(C7COC7)CC6)CCO5)CC[C@@]45C[C@@]35CC[C@]21C)C(C)(C)O [Compound I-35],1000 to 5000,1000 to 5000,,,501 to 1000,100 to 500,100 to 500,,,,,> 5000
CCO[C@@H]([C@H]1C[C@@H](C)[C@H]2[C@H](O1)[C@H](O)[C@@]1(C)[C@@H]3CC[C@H]4C(C)(C)[C@@H](O[C@H]5CN(CCN6CCC6)CCO5)CC[C@@]45C[C@@]35CC[C@]21C)C(C)(C)O [Compound I-57],1000 to 5000,1000 to 5000,,,100 to 500,< 100,100 to 500,0 to 25,,,,
CCO[C@@H]([C@H]1C[C@@H](C)[C@H]2[C@H](O1)[C@H](O)[C@@]1(C)[C@@H]3CC[C@H]4C(C)(C)[C@@H](O[C@H]5CN(CCN6CCOCC6)CCO5)CC[C@@]45C[C@@]35CC[C@]21C)C(C)(C)O [Compound I-58],,> 5000,,,501 to 1000,100 to 500,100 to 500,26 to 50,,,,
CCO[C@@H]([C@H]1C[C@@H](C)[C@H]2[C@H](O1)[C@H](O)[C@@]1(C)[C@@H]3CC[C@H]4C(C)(C)[C@@H](O[C@H]5CN(CCNCCOC)CCO5)CC[C@@]45C[C@@]35CC[C@]21C)C(C)(C)O [Compound I-60],1000 to 5000,1000 to 5000,A (A is range from 0-25%),100 to 500,100 to 500,100 to 500,100 to 500,,,,,
CCO[C@@H]([C@H]1C[C@@H](C)[C@H]2[C@H](O1)[C@H](O)[C@@]1(C)[C@@H]3CC[C@H]4C(C)(C)[C@@H](O[C@H]5CN(CCN(C)CCOC)CCO5)CC[C@@]45C[C@@]35CC[C@]21C)C(C)(C)O [Compound I-61],1000 to 5000,1000 to 5000,A (A is range from 0-25%),,501 to 1000,100 to 500,100 to 500,,,,,
CCO[C@@H]([C@H]1C[C@@H](C)[C@H]2[C@H](O1)[C@H](O)[C@@]1(C)[C@@H]3CC[C@H]4C(C)(C)[C@@H](O[C@H]5CN([C@@H](C)CN6CCC6)CCO5)CC[C@@]45C[C@@]35CC[C@]21C)C(C)(C)O [Compound I-76],,,B (B is a range from 26-50%),,,1000 to 5000,,,,,,
CCO[C@@H]([C@H]1C[C@@H](C)[C@H]2[C@H](O1)[C@H](O)[C@@]1(C)[C@@H]3CC[C@H]4C(C)(C)[C@@H](O[C@H]5CN([C@H](C)CN6CCC6)CCO5)CC[C@@]45C[C@@]35CC[C@]21C)C(C)(C)O [Compound I-77],,,A (A is range from 0-25%),,,,,,,,,
